# Experimental data taken from the supplement of paper PMC10307832.
# Tests used:
# Test in all cases: relative viability (nuclei count vs DMSO), 5 days (fraction); higher = more cells survive
# [1] = compound: NS(=O)(=O)OC[C@@H]1C[C@@H](n2ccc3c(N[C@H]4CCc5ccccc54)ncnc32)C[C@@H]1O [MLN4924] + Cc1nc(Nc2ncc(C(=O)Nc3c(C)cccc3Cl)s2)cc(N2CCN(CCO)CC2)n1 [Dasatinib] (partner 0.075 µM)
# Outline: (§1)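 Values are medians from duplicate plates. Each reflects relative viability, defined as the nuclei count of treated wells over that of vehicle wells. Lung cancer cell lines in 1536-well plates were pin-tool dosed one day after seeding with one drug alone or with a fixed anchor-drug dose plus five library-drug doses (not always all listed) in √10 steps, then fixed, stained and imaged at 4× after 5 days.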
# [2] = compound: C1CC(C1)(C(=O)O)C(=O)O.[NH2-].[NH2-].[Pt+2] [Carboplatin] + CC1(C)CCC(c2ccc(Cl)cc2)=C(CN2CCN(c3ccc(C(=O)NS(=O)(=O)c4ccc(N[C@H](CCN5CCOCC5)CSc5ccccc5)c(S(=O)(=O)C(F)(F)F)c4)cc3)CC2)C1 [Navitoclax] (partner 0.5 µM)
# Outline: as §1
# [3] = compound: C1CC(C1)(C(=O)O)C(=O)O.[NH2-].[NH2-].[Pt+2] [Carboplatin] + CS(=O)(=O)CCNCc1ccc(-c2ccc3ncnc(Nc4ccc(OCc5cccc(F)c5)c(Cl)c4)c3c2)o1 [Lapatinib] (partner 2 µM)
# Outline: as §1
# [4] = compound: CC[C@H](C)N1C=C(C2=C(C=C(C=C21)C3=CN=C(C=C3)N4CCNCC4)C(=O)NCC5=C(C=C(NC5=O)C)C)C [GSK126] + O=C(CCCCCCC(=O)Nc1ccccc1)NO [Vorinostat] (partner 1 µM)
# Outline: as §1
Cell Line,relative viability ([1]; first compound 0.04 µM),relative viability ([1]; first compound 0.1265 µM),relative viability ([1]; first compound 0.4 µM),relative viability ([1]; first compound 1.265 µM),relative viability ([1]; first compound 4 µM),relative viability ([2]; first compound 0.08 µM),relative viability ([2]; first compound 0.253 µM),relative viability ([2]; first compound 0.8 µM),relative viability ([2]; first compound 2.53 µM),relative viability ([2]; first compound 8 µM),relative viability ([3]; first compound 0.08 µM),relative viability ([3]; first compound 0.253 µM),relative viability ([3]; first compound 0.8 µM),relative viability ([3]; first compound 2.53 µM),relative viability ([3]; first compound 8 µM),relative viability ([4]; first compound 0.08 µM),relative viability ([4]; first compound 0.253 µM),relative viability ([4]; first compound 0.8 µM),relative viability ([4]; first compound 2.53 µM),relative viability ([4]; first compound 8 µM)
HCC-78,0.412,0.307,0.604,0.314,0.152,0.782,0.92,0.707,0.751,0.816,0.867,0.833,0.971,0.875,0.631,0.429,0.402,0.413,0.437,0.452
HCC-366,0.67,0.702,0.967,0.627,0.0684,1.08,1.12,1.13,1.02,0.753,1.08,1.01,0.988,0.963,0.863,0.389,0.354,0.29,0.342,0.385
HCC-827,0.483,0.608,0.771,0.265,0.187,0.999,0.98,0.927,0.982,0.918,0.236,0.175,0.18,0.187,0.224,0.893,0.929,0.798,0.925,0.919
HOP-62,0.887,0.742,0.427,0.0794,0.076,1.04,1.08,0.789,0.902,0.748,0.98,1.07,1.09,1.02,0.812,0.725,0.542,0.633,0.646,0.665
IA-LM,,,,,,0.756,0.553,0.826,0.675,0.532,0.809,0.802,0.739,0.929,0.77,1.06,0.797,0.941,0.929,0.853
LC-2-ad,0.551,0.408,0.498,0.144,0.2,0.37,0.49,0.422,0.436,0.326,0.967,0.981,0.938,0.991,0.844,0.767,0.667,0.704,0.712,0.63
LCLC-97TM1,1.01,0.683,0.767,0.113,0.104,0.401,,0.424,0.391,0.33,0.891,,1.02,1.08,1,0.771,0.8,0.717,0.812,0.691
LCLC-103H,0.452,0.569,0.653,0.141,0.112,,,,,,,,,,,0.888,0.906,0.77,0.786,0.761
LK-2,0.28,0.261,0.285,0.162,0.196,0.905,1.03,0.74,0.74,0.995,1.17,0.956,0.858,0.792,0.809,0.239,0.233,0.411,0.279,0.298
NCI-H358,0.211,0.31,0.25,0.113,0.0832,,,,,,0.483,0.474,0.538,0.485,0.543,0.767,0.708,0.644,0.68,0.672
NCI-H441,0.603,0.47,0.337,0.212,0.141,0.657,1.19,0.447,0.545,0.526,,,,,,1.04,0.59,0.714,0.673,0.791
NCI-H522,0.845,0.863,0.652,0.546,0.437,,,,,,,,,,,0.888,0.887,0.954,1.04,0.92
NCI-H650,0.407,0.418,0.236,0.215,0.193,,,,,,1.06,0.852,0.876,0.976,0.521,0.482,0.412,0.411,0.403,0.487
NCI-H661,1,1.05,0.556,0.256,0.362,,,,,,0.649,0.511,0.331,0.369,0.459,0.779,0.746,0.734,0.716,0.69
NCI-H1299,,,,,,1.09,1.02,1.02,1.01,0.964,0.993,0.922,0.944,0.907,0.892,,,,,
NCI-H1563,0.67,0.819,0.714,0.446,0.426,,,,,,0.998,1.07,1.11,0.925,0.979,,,,,
NCI-H1623,0.626,0.573,0.341,0.227,0.183,,,,,,,,,,,,,,,
NCI-H1648,,,,,,,,,,,,,,,,0.496,0.401,0.467,0.5,0.548
NCI-H1703,,,,,,1.31,1.2,1.11,1.07,1.49,1.13,0.966,1.13,0.92,1.28,,,,,
NCI-H1792,0.725,0.819,1.03,0.902,0.762,0.887,0.682,0.667,0.618,0.567,1,1.02,0.941,0.817,0.8,,,,,
NCI-H2342,0.343,0.344,0.339,0.354,0.355,,,,,,,,,,,0.82,0.753,0.74,0.725,0.857
SW 900,0.51,0.433,0.576,0.294,0.139,,,,,,,,,,,0.421,0.546,0.432,0.39,0.566
